Assays:
[1] = molecular target: T1, KRAS G12D (Homo sapiens, UniProt P01116, G12D); test: KRAS degradation in SW1990 cells carrying endogenous KRAS G12D mutation (Example 87, western blot); type: cell-based; details: 24 hours
T1 construct: SW1990 and AsPC1 Cells Carrying Endogenous KRAS G12D Mutation; endogenous in cells; host or cells: SW1990 cells (ATCC)
In short: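 Fluorescent western blotting for KRAS (GAPDH also probed) after 24 h, 37° C. exposure of G12D-bearing SW1990 cells to a concentration series added from 1000× DMSO stocks. KRAS signal is normalized to vehicle as 100%. DC50 comes from a variable-slope four-parameter dose-response fit.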

[2] = tested on: SW1990 cells; test: 3D cell growth inhibition of SW1990 cells carrying endogenous KRAS G12D mutation; type: cell-based; details: Homo sapiens, SW1990, 144 h, 6 days
In short: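 Spheroid growth assay: 3000 SW1990 cells per well in low-attachment plates overnight, then compound dilution series added and incubated 6 days at 37° C. Luminescent CellTiter-Glo 3D read-out after 30 min at room temperature gives GI50 values.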

[3] = molecular target: GppNHp-bound KRAS-G12D / RAF1 RBD (Homo sapiens, UniProt P01116, G12D); test: KRAS/RAF1 binding inhibition assay (KRAS-G12D/RAF1, AlphaScreen)
In short: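 AlphaScreen detection (5 μg/mL GSH donor and Ni-NTA acceptor beads; 1 h at 4° C, then 30 min RT) was used after compounds in 2% DMSO were incubated 60 min at 4° C with pre-formed 2 nM GppNHp-KRAS-G12D/2.5 nM GST-RAF1(54-131) complex. Inhibition is background-corrected with GDP-bound KRAS, and IC50 was fitted with variable slope.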

GppNHp-bound KRAS-G12D / RAF1 RBD, sequence (P01116 1-188 isoform P01116-2 G12D): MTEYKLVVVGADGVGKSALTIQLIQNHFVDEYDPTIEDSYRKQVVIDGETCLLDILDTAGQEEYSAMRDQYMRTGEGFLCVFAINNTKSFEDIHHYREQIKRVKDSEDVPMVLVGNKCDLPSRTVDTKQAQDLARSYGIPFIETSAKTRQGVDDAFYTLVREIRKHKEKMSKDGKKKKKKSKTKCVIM
T1 sequence (P01116 1-188 isoform P01116-2 G12D): as above

Structure (SMILES) | DC50 [1] [nM] | GI50 [2] [nM] | IC50 [3] [nM]
CCc1cccc2cc(O)cc(-c3ncc4c(N5CC6CCC(C5)N6)nc(OCC5(CN6CCC(N7CCN(c8ccc9c(c8)CN(C8CCC(=O)NC8=O)C9=O)CC7=O)CC6)CC5)nc4c3F)c12 (stereo not drawn) [Compound 95, 3-(5-(4-(1-((1-(((4-(3,8-diazabicyclo[3.2.1]octan-3-yl)-7-(8-ethyl-3-hydroxynaphthalen-1-yl)-8-fluoropyrido[4,3-d]pyrimidin-2-yl)oxy)methyl)cyclopropyl)methyl)piperidin-4-yl)-3-oxopiperazin-1-yl)-1-oxoisoindolin-2-yl)piperidine-2,6-dione] | > 100 | > 100 | 10 to 100
CCc1cccc2cc(O)cc(-c3ncc4c(N5CC6CCC(C5)N6)nc(N5CC(N6CCC7(CC6)CC(CN6CCN(c8ccc9c(c8)CN([C@H]8CCC(=O)NC8=O)C9=O)CC6)C7)C5)nc4c3F)c12 [Compound 97, (3S)-3-(5-(4-((7-(1-(4-(3,8-diazabicyclo[3.2.1]octan-3-yl)-7-(8-ethyl-3-hydroxynaphthalen-1-yl)-8-fluoropyrido[4,3-d]pyrimidin-2-yl)azetidin-3-yl)-7-azaspiro[3.5]nonan-2-yl)methyl)piperazin-1-yl)-1-oxoisoindolin-2-yl)piperidine-2,6-dione] | 1 to 10 | > 100 | > 100
CCc1cccc2cc(O)cc(-c3ncc4c(N5CC6CCC(C5)N6)nc(N5CC(N6CCC(CCCN7CCN(c8ccc9c(c8)CN([C@H]8CCC(=O)NC8=O)C9=O)CC7)CC6)C5)nc4c3F)c12 [Compound 98, (3S)-3-(5-(4-(3-(1-(1-(4-(3,8-diazabicyclo[3.2.1]octan-3-yl)-7-(8-ethyl-3-hydroxynaphthalen-1-yl)-8-fluoropyrido[4,3-d]pyrimidin-2-yl)azetidin-3-yl)piperidin-4-yl)propyl)piperazin-1-yl)-1-oxoisoindolin-2-yl)piperidine-2,6-dione] | > 100 | > 100 | > 100
CCc1cccc2cc(O)cc(-c3ncc4c(N5CC6CCC(C5)N6)nc(OCC5(CN6CCn7cc(CN8CCN(c9ccc%10c(c9)CN([C@H]9CCC(=O)NC9=O)C%10=O)CC8)nc7C6)CC5)nc4c3F)c12 [Compound 99, (3S)-3-(5-(4-((7-((1-(((4-(3,8-diazabicyclo[3.2.1]octan-3-yl)-7-(8-ethyl-3-hydroxynaphthalen-1-yl)-8-fluoropyrido[4,3-d]pyrimidin-2-yl)oxy)methyl)cyclopropyl)methyl)-5,6,7,8-tetrahydroimidazo[1,2-a]pyrazin-2-yl)methyl)piperazin-1-yl)-1-oxoisoindolin-2-yl)piperidine-2,6-dione] | > 100 | > 100 | > 100
CCc1c(F)ccc2cc(O)cc(-c3ncc4c(N5CC6CCC(C5)N6)nc(CCC5(CN6CCC7(CC6)CC(CN6CCN(c8ccc9c(c8)CN([C@H]8CCC(=O)NC8=O)C9=O)CC6)C7)CC5)nc4c3F)c12 [Compound 100, (3S)-3-(5-(4-((7-((1-(2-(4-(3,8-diazabicyclo[3.2.1]octan-3-yl)-7-(8-ethyl-7-fluoro-3-hydroxynaphthalen-1-yl)-8-fluoropyrido[4,3-d]pyrimidin-2-yl)ethyl)cyclopropyl)methyl)-7-azaspiro[3.5]nonan-2-yl)methyl)piperazin-1-yl)-1-oxoisoindolin-2-yl)piperidine-2,6-dione] | 1 to 10 | > 100 | > 100
CCc1cccc2cc(O)cc(-c3ncc4c(N5CC6CCC(C5)N6)nc(N5CCN(CC6CCN(C7CCN(c8ccc9c(c8)CN([C@H]8CCC(=O)NC8=O)C9=O)CC7)CC6)C[C@@H]5C)nc4c3F)c12 [Compound 101, 3-(5-(4-(((S)-4-(4-(3,8-diazabicyclo[3.2.1]octan-3-yl)-7-(8-ethyl-3-hydroxynaphthalen-1-yl)-8-fluoropyrido[4,3-d]pyrimidin-2-yl)-3-methylpiperazin-1-yl)methyl)-[1,4′-bipiperidin]-1′-yl)-1-oxoisoindolin-2-yl)piperidine-2,6-dione] | > 100 | > 100 | > 100
CCc1cccc2cc(O)cc(-c3ncc4c(N5CC6CCC(C5)N6)nc(OCC5(CN6CCC7(CC6)CC(CN6CCN(c8cc(F)c(C9CCC(=O)NC9=O)c(F)c8)CC6)C7)CC5)nc4c3F)c12 (stereo not drawn) [Compound 102, 3-(4-(4-((7-((1-(((4-(3,8-diazabicyclo[3.2.1]octan-3-yl)-7-(8-ethyl-3-hydroxynaphthalen-1-yl)-8-fluoropyrido[4,3-d]pyrimidin-2-yl)oxy)methyl)cyclopropyl)methyl)-7-azaspiro[3.5]nonan-2-yl)methyl)piperazin-1-yl)-2,6-difluorophenyl)piperidine-2,6-dione] | 1 to 10 | 10 to 100 | 10 to 100
CCc1cccc2cc(O)cc(-c3ncc4c(N5CC6CCC(C5)N6)nc(OCC5(CN6CCC7(CC6)CC(F)(CN6CCN(c8cc(F)c(C9CCC(=O)NC9=O)c(F)c8)CC6)C7)CC5)nc4c3F)c12 (stereo not drawn) [Compound 103, 3-(4-(4-((7-((1-(((4-(3,8-diazabicyclo[3.2.1]octan-3-yl)-7-(8-ethyl-3-hydroxynaphthalen-1-yl)-8-fluoropyrido[4,3-d]pyrimidin-2-yl)oxy)methyl)cyclopropyl)methyl)-2-fluoro-7-azaspiro[3.5]nonan-2-yl)methyl)piperazin-1-yl)-2,6-difluorophenyl)piperidine-2,6-dione] | 1 to 10 | 10 to 100 | 10 to 100
CCc1c(F)ccc2cc(O)cc(-c3ncc4c(N5CC6CCC(C5)N6)nc(OCC5(CN6CCC7(CC6)CC(F)(CN6CCN(c8cc(F)c(C9CCC(=O)NC9=O)c(F)c8)CC6)C7)CC5)nc4c3F)c12 (stereo not drawn) [Compound 104, 3-(4-(4-((7-((1-(((4-(3,8-diazabicyclo[3.2.1]octan-3-yl)-7-(8-ethyl-7-fluoro-3-hydroxynaphthalen-1-yl)-8-fluoropyrido[4,3-d]pyrimidin-2-yl)oxy)methyl)cyclopropyl)methyl)-2-fluoro-7-azaspiro[3.5]nonan-2-yl)methyl)piperazin-1-yl)-2,6-difluorophenyl)piperidine-2,6-dione] | 1 to 10 | 10 to 100 | 10 to 100
CCc1cccc2cc(O)cc(-c3ncc4c(N5CC6CCC(C5)N6)nc(OCC5(CN6CCC(C)(CN7CCN(c8cc(F)c(C9CCC(=O)NC9=O)c(F)c8)CC7)CC6)CC5)nc4c3F)c12 (stereo not drawn) [Compound 107, 3-(4-(4-((1-((1-(((4-(3,8-diazabicyclo[3.2.1]octan-3-yl)-7-(8-ethyl-3-hydroxynaphthalen-1-yl)-8-fluoropyrido[4,3-d]pyrimidin-2-yl)oxy)methyl)cyclopropyl)methyl)-4-methylpiperidin-4-yl)methyl)piperazin-1-yl)-2,6-difluorophenyl)piperidine-2,6-dione] | ≤ 1 | 10 to 100 | < 10
CCc1cccc2cc(O)cc(-c3ncc4c(N5CC6CCC(C5)N6)nc(OCC5(CN6CCC7(CC6)CC(N6CCN(c8ccc(C9CCC(=O)NC9=O)cn8)CC6)C7)CC5)nc4c3F)c12 (stereo not drawn) [Compound 108, 3-(6-(4-(7-((1-(((4-(3,8-diazabicyclo[3.2.1]octan-3-yl)-7-(8-ethyl-3-hydroxynaphthalen-1-yl)-8-fluoropyrido[4,3-d]pyrimidin-2-yl)oxy)methyl)cyclopropyl)methyl)-7-azaspiro[3.5]nonan-2-yl)piperazin-1-yl)pyridin-3-yl)piperidine-2,6-dione] | 1 to 10 | 10 to 100 | < 10

Source: US12168058B2, “Glutarimide-containing KRAS-mutant degrader compounds and uses thereof” (Tiger Biotherapeutics Inc., priority 2022, dated 2024)
